Structures can show the parent of a compound that is named as a salt. Where two headings read alike, the source gives them in different places.

As a reminder, the IC50 is the concentration that gives 50% inhibition. Usually LD50 stands for the dose expected to kill half of the subjects tested. As a reminder, the inhibition is the share of the control response that was lost under treatment.

The subject of series [1] is arachidonic acid induced platelet aggregation. Nature of the series: Arachidonic acid induced platelet aggregation in vitro. It counts as cell-based. As to conditions: read-out: AA (IC50, arachidonic acid induced platelet aggregation). The method, then:
(§1) (1) Assay for Platelet Aggregation In Vitro
(§2) The turbidometric method of G. V. R. Born, Nature 194, 927 (1962) is used. Platelet rich plasma (PRP) and platelet poor plasma (PPP) are prepared with 0.38% sodium citrate-treated blood. Speed and time of centrifugation varied with different species; human:160 g for 20 minutes, dog:160 g for 15 minutes, guinea pig and rabbit:160 g for 15 minutes, and rat:230 g for 10 minutes. Aggregation is monitored with a Payton dual channel module or Chronolog lumiaggregometer when the release of ATP is simultaneously measured. 0.45 ml of PRP is added to a cuvette and prewarmed to 37° C. The stimulant (arachidonic acid or synthetic platelet activating factor) is added in volumes of 50 μl; all other agents in 5 μl. Vehicles are added to samples not containing agents. 0 to 100% light transmission is set with PRP and PPP. % aggregation is calculated from the % increase in light transmission at 5 minutes after the addition of the aggregating agent. For inhibition of aggregation studies the inhibitor is added first and preincubated with the platelets for 1 minute with stirring, followed by the stimulant. % inhibition is calculated from the % aggregation with and without the test compound. [formula]

The test system of series [2] is platelet activating factor induced platelet aggregation. Nature of the series: Platelet activating factor induced platelet aggregation in vitro. As to conditions: racemic platelet activating factor; read-out: PAF (IC50, platelet activating factor induced platelet aggregation). It counts as cell-based. As to the method: as §1, §2
Series [3] deals with leukotriene E induced bronchoconstriction. Nature of the series: Guinea pig bronchoconstriction, in vivo (aerosol). As to conditions: aerosol at concentration inhibiting bronchoconstriction by 80%. On the set-up: species or system guinea pig (Hartly strain). As to the method: (c) Guinea Pig Bronchoconstriction, In Vivo (Aerosol):
Male guinea pigs (Hartly strain) weighing 300 to 500 g are anesthetized with urethane (2 g/kg) intraperitoneally and a polyethylene cannula is inserted into the jugular vein for drug administration. Tracheal pressure is recorded from a cannula inserted in the trachea and connected to a Statham pressure transducer. After surgical preparation of the animals, a period of time is allowed for pulmonary functions to stabilize. The test compound is administered according to the following protocol. Propranolol (0.1 mg/kg) is administered intravenously while the animals breathed spontaneously. Five minutes thereafter, the animals are exposed for a five minute period to a 1% (w/v) aerosol solution of test compound (adjusted to an alkaline pH where necessary for drug solubilization) or to distilled water of the appropriate pH (for control purposes). A Monaghan (Model 750) ultrasonic nebulizer is used to administer all test compounds by inhalation. The nebulizer ultrasonic frequency is adjusted to produce particles in the 1-8μ diameter range (average 3μ). Aqueous solutions are prepared fresh and introduced into the chamber of the nebulizer. The output of the nebulizer is made available to the animal by directing a bias flow of aerosol through a y tube connected to the tracheal cannula. At the end of the exposure period, the animals are paralyzed with succinylcholine (1.2 mg/kg, i.v.) and mechanically respirated (Harvard rodent respirator) at 40 breaths/minute and 2.5 cc tidal volume. Animals are then challenged with a maximum constrictory dose of leukotriene E delivered intravenously 30 seconds after administration of the succinylcholine.
The change (cm H2 O) between pre and peak ventilatory pressure readings is averaged for three control animals and five drug treated animals. The percent inhibition is calculated from the following formula:
(Control-Drug Tested/Control)×100
When various drug concentrations are tested, the percent inhibition at each concentration is plotted as log concentration (abscissa) versus percent inhibition (ordinate) and the IC50 is determined from linear regression analysis.
In order to determine the aerosol half-life (t 1/2), the animals are prepared as described above, except that the time between aerosol exposure and challenge with leukotriene E is varied. All compounds are administered at the concentration necessary to inhibit leukotriene-induced bronchoconstriction by 80%. Biological half-life is calculated from plots of time (abscissa) versus log percent inhibition (ordinate).

The test system of series [4] is histamine-induced constriction in guinea pig ilea. Briefly: Antagonism of histamine-induced constriction in guinea pig ilea. Particulars: 1×10^-7 M histamine. As to the method: (f) Antagonism of Histamine-induced Constriction in Guinea Pig Ilea
Antihistaminic activity was determined on a segment of guinea pig ileum that was suspended in a 37° C. bath of oxygenated Tyrodes solution. At 4 minute intervals, the ileum was challenged with 1×10^-7 M histamine for sufficient time to produce a peak contraction and then washed with fresh Tyrodes solution. After the tissue response to histamine had stabilized, the ileum was pretreated with the standard antihistaminic compound, pyrilamine maleate, for 1 minute prior to rechallenge with histamine, the contraction recorded, and the tissue washed with Tyrodes solution. […] By the IC50 for pyrilamine maleate in the test system was 1×10^-8 M. IC50 's for test drugs were determined by this same procedure.

The nature of series [5]: LD50 in mice (acute toxicity). As to conditions: mouse, in vivo, po, orally.
Series [6] concerns leukotriene E (LTE) induced skin wheal formation in rat skin. Nature of the series: LTE-induced skin wheal formation in rat. Particulars: for ED50: rat skin wheal, read-out: ID50 (the source's name). It counts as in vivo. The method, then:
(a) Methodology for LTE-induced Skin Wheal Formation in Rat. The ability of a drug to inhibit leukotriene E (LTE) induced skin wheal formation in rat skin is measured. In this model system a dose of LTE which gives a maximal wheal response, is injected (in 0.05 ml of saline) intradermally into anesthetized rats which have been pretreated for 30 minutes with 50 mg/kg of pyrilamine maleate and 4 mg/kg of methyl […] maleate (both administered intraperitoneally). The animal is then immediately treated with test drug (at 10 mg/kg, i.v.) followed by an intravenous injection of Evans blue (0.5%) into the tail vein of the animal. Thirty minutes later the animals are sacrificed and the increase in capillary permeability induced by LTE is reflected by the migration of dye into the injection point in the skin (the response being quantitated by the size, in mm, of the dye spot in the skin). The average response in 5 animals (4 intradermal injections of LTE per animal) treated with the test compound is compared with the response elicited in a similar group of animals which were not treated with the drug. For oral studies, the test animals are pretreated two hours prior to intradermal injection of LTE.

For series [7], the system named is leukotriene E induced bronchoconstriction. Briefly: LTE-induced bronchoconstriction in guinea pigs, in vivo (i.v. / oral). On the set-up: species or system guinea pig (Hartley strain). As to conditions: for ED50: read-out: ID50 (the source's name).
Series [8] relates to SRS-A induced contraction of guinea pig ileum. Briefly: In vitro SRS-A antagonism. Particulars: 30 seconds pretreatment. As to the method:
(j) In vitro SRS-A Antagonism
SRS-A was determined by bioassay on the guinea pig ileum using a modification of the method described by Orange et al., Adv. Immunol., 1969, 10, 105. A 1.5 cm segment of the ileum, obtained from male guinea pigs (175-200 g), was suspended in an organ bath containing Tyrodes solution with 10^-6 M atropine sulfate and 10^-6 M pyrilamine maleate. The bath was maintained at 37° C. and gassed with a mixture of 95 percent oxygen and 5 percent carbon dioxide. The ileum was attached to a strain gauge transducer and isotonic contractions recorded by a strip chart recorder. A resting tension of 0.5 g was applied and the tissue allowed to equilibrate for 1 hour.
The SRS-A used in these studies was obtained by challenging a large quantity of chopped lung fragments from actively sensitized guinea pigs with egg albumin in vitro. The animals were sensitized to egg albumin by an intraperitoneal injection of the antigen (1 ml of 10 mg/ml) in saline 28 to 45 days prior to challenge. The in vitro challenge was carried out by first preincubating the lung tissue (40 mg/ml) at 37° C. in Tyrodes solution for 5 minutes, adding the egg albumin ([…] final concentration) to the fragments and after a 10 minute challenge, separating the media containing the SRS-A from the lung tissue by filtration on Whatman #1 filter paper. The concentration of SRS-A in the filtrate was calibrated by comparison of the contraction amplitude elicited in the bioassay system by a given volume of the supernatant with contractions obtained by varying concentrations of histamine. One unit of SRS-A is equivalent to that quantity which will give the same contraction as 5 ng of histamine. After standarization, the SRS-A was stored in small aliquots at -80° C. for further use. […] SRS-A antagonism was determined by pretreating the ileum with drug for 30 seconds prior to the addition of a concentration of SRS-A which have a submaximal response, determination of the amplitude of contraction elicited in the presence of drug and then washing the ileum with Tyrodes. […]

The test system of series [9] is acetylcholine-induced constriction in guinea pig ilea. Nature of the series: Antagonism of acetylcholine-induced constriction in guinea pig ilea. As to conditions: 5.0×10^-7 M acetylcholine; read-out: IC50 antagonism of acetylcholine-induced constrictions. The method, then:
(e) Antagonism of Acetylcholine-induced Constriction in Guinea Pig Ilea
Anticholinergic activity was determined on a segment of guinea pig ileum that was suspended in a 37° C. bath of oxygenated Tyrodes solution. At 4 minute intervals, the ileum was challenged with 5.0×10^-7 M acetylcholine for sufficient time to produce a peak contraction and then washed with fresh Tyrodes solution. After the tissue response to acetylcholine had stablized, the ileum was pretreated with the standard anticholinergic, atropine sulfate, for 1 minute prior to rechallenge with acetylcholine, the contraction recorded and the tissue washed with Tyrodes solution. […] The IC50 for atropine was 1×10^-8 M. THe IC50 's for test drugs were determined by this same procedure.

For the molecule `Cc1ccc2nc3ccc(C(=O)NCCCCc4cccnc4)cn3c(=O)c2c1` [Example 17, 2-Methyl-N-[4-(3-pyridyl)butyl]-11-oxo-11H-pyrido[2,1-b]quinazoline-8-carboxamide], the IC50 in [1] is < 10 µM; in [2], > 10 µM.
The matching figures for `CC(C)c1ccc2nc3ccc(C(=O)NCCCCCn4ccnc4)cn3c(=O)c2c1` [Example 16, N-[5-(1H-Imidazol-1-yl)pentyl]-2-(1-methylethyl)-11-oxo-11H-pyrido[2,1-b]quinazoline-8-carboxamide]: < 10 µM and > 10 µM.
In series [3], `CCCCC[C@H](O)/C=C/[C@H]1[C@H](O)CC(=O)[C@@H]1C/C=C\CCCC(=O)O` [PGE2] showed a Biological half-life of 2.1 min.
For the molecule `COc1ccc(CN(CCN(C)C)c2ccccn2)cc1` [pyrilamine maleate, reference compound], 0.01 µM corresponded to half-maximal inhibition in series [4] (IC50).
Consider `CC(C)c1ccc2nc3ccc(C(=O)OCCCc4cccnc4)cn3c(=O)c2c1` [Example 1, 2-(1-methylethyl)-11-oxo-11H-pyrido[2,1-b]quinazoline-8-carboxylic acid 3-(3-pyridyl)propyl ester], for which the IC50 in series [1] is > 10 µM; in series [2] it was < 10 µM.
For `CC(C)c1ccc2nc3ccc(C(=O)NCCSc4ccncc4)cn3c(=O)c2c1` [Example 12, N-[2-(4-Pyridylthio)ethyl]-2-(1-methylethyl)-11-oxo-11H-pyrido[2,1-b]quinazoline-8-carboxamide], the 50% inhibitory concentration (IC50) in series [1] and in series [2] was < 10 µM each time.
Take `CC(C)NCC(O)c1ccc(O)c(O)c1` (stereo not shown) [Isoproterenol]: the Biological half-life in series [3] worked out at 19.4 min.
`CC(C)c1ccc2nc3ccc(C(=O)NCCCCc4ccncc4)cn3c(=O)c2c1` [2-(1-methylethyl)-N-[4-(4-pyridyl)butyl]-11-oxo-11H-pyrido[2,1-b]quinazoline-8-carboxamide]: the LD50 in series [5] was > 1000 mg/kg. For the same molecule, the ED50 in series [6] (iv) stood at 10 mg/kg; in [6] (po), 90 mg/kg; in series [7] (Cavia porcellus, iv), 1.9 mg/kg; in series [7] (Cavia porcellus, po, orally (2 hours pretreatment)), 57 mg/kg. In addition, the IC50 in series [1] is > 10 µM; in [2] it was < 10 µM.
Turning to `CC(C)Oc1ccc2nc3ccc(C(=O)NCCCCc4cccnc4)cn3c(=O)c2c1` [Example 19, 2-(1-Methylethoxy)-N-[4-(3-pyridyl)butyl]-11-oxo-11H-pyrido[2,1-b]quinazoline-8-carboxamide], the 50% inhibitory concentration (IC50) in series [1] and in series [2] was < 10 µM each time.
Turning to `CCCc1c(OCC(O)COc2ccc3c(=O)cc(C(=O)O)oc3c2CCC)ccc(C(C)=O)c1O` (stereo not shown) [FPL 55712, 7-[3-(4-Acetyl-3-hydroxy-2-propylphenoxy)-2-hydroxypropoxy]-4-oxo-8-propyl-4H-1-benzopyran-2-carboxylic acid, reference compound], the inhibition at 10 mg/kg in [6] (Rattus norvegicus, iv, 10 mg/kg) came to 88%; in series [7] (Cavia porcellus, iv, 10 mg/kg), 98%. The “oral activity, LTE-induced skin wheal” value in [6] (orally) was “inactive orally”. The molecule also gave a Biological half-life in [3] of 77 min. Also, the “oral activity, LTE-induced bronchoconstriction” value in series [7] (orally) was “orally inactive”. The IC50 in [8] came out at 0.03 µM.
`CN1[C@@H]2CC[C@H]1CC(OC(=O)C(CO)c1ccccc1)C2` (stereo partly shown) [atropine, atropine sulfate, reference compound]: in series [9], the IC50 turned out to be 0.01 µM.
In the case of `O=C(NCCCCc1cccnc1)c1ccc2nc3ccc(O)cc3c(=O)n2c1` [Example 22, 2-Hydroxy-N-[4-(3-pyridyl)butyl]-11-oxo-11H-pyrido[2,1-b]quinazoline-8-carboxamide], the half-maximal inhibitory concentration (IC50) in [1] and in [2] was < 10 µM in each case.
Consider `CC(C)c1ccc2nc3ccc(C(=O)NCCCCCc4ccncc4)cn3c(=O)c2c1` [Example 11, N-[5-(4-Pyridyl)pentyl]-2-(1-methylethyl)-11-oxo-11H-pyrido[2,1-b]quinazoline-8-carboxamide], for which the IC50 in [1] and in [2] was < 10 µM in each case.

Source of the values: patent US4551460A, “Pyrido[2,1-b]quinazoline derivatives useful as agents for treatment of allergic conditions and vascular disorders involving thrombosis” (priority 1983, dated 1985).
